The target of assay [1] is rKOR (rat κ-opioid receptor) (Rattus norvegicus, UniProt P34975). Nature of the assay: BRET CAMYEL cAMP assay, HEK-293T. Type of assay: cell-based. For orientation: In BRET a luciferase serves as donor, and the signal depends on an acceptor being close.
The target of assay [2] is hMOR (human μ-opioid receptor) (Homo sapiens, UniProt P35372). Nature of the assay: radioligand displacement. For orientation: Displacement assays read how much labelled ligand stays bound in the presence of the test substance.
In assay [3] the target is hDOR (human δ-opioid receptor) (Homo sapiens, UniProt P41143). Put plainly: radioligand displacement.
Assay [4] concerns the target KOR (human κ-opioid receptor, PDSP binding) (Homo sapiens, UniProt P41145). Nature of the assay: radioligand displacement. Particulars: n=4.
Assay [5] has as its target mDOR (mouse δ-opioid receptor) (Mus musculus, UniProt P32300). Put plainly: BRET G-protein activation, HEK-293T. Type of assay: cell-based.

Usually IC50 stands for the concentration at which inhibition is half-maximal. Higher therefore signals weaker potency in that assay. By Ki is commonly meant a measure of affinity in units of concentration, obtained from inhibition or displacement. Read a high Ki as lower affinity. Broadly, the EC50 is the concentration giving half of the maximal effect. A lower EC50 goes with an effect from little substance.

Sequence of rKOR (rat κ-opioid receptor) (P34975 whole entry): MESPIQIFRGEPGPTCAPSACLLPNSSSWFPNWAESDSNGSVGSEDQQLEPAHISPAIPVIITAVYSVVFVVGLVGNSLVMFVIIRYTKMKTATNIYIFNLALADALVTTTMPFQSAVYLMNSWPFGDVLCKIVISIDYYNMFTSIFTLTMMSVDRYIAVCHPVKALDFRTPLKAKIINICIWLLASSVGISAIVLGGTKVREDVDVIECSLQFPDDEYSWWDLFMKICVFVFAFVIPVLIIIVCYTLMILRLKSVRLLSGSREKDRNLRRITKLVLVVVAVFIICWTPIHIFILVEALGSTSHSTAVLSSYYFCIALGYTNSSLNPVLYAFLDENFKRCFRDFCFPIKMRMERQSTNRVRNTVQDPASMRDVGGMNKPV
Sequence of KOR (human κ-opioid receptor, PDSP binding) (P41145 whole entry): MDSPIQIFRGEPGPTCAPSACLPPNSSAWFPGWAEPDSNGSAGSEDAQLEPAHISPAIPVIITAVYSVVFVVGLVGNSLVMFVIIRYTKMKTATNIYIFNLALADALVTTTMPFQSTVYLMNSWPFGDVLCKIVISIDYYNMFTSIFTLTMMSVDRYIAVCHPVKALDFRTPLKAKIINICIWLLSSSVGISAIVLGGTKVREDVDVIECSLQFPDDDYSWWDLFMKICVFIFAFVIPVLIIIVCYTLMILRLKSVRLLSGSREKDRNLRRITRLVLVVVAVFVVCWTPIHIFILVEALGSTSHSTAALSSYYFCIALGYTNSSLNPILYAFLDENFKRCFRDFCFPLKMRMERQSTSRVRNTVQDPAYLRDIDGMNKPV
Sequence of hMOR (human μ-opioid receptor) (P35372 whole entry): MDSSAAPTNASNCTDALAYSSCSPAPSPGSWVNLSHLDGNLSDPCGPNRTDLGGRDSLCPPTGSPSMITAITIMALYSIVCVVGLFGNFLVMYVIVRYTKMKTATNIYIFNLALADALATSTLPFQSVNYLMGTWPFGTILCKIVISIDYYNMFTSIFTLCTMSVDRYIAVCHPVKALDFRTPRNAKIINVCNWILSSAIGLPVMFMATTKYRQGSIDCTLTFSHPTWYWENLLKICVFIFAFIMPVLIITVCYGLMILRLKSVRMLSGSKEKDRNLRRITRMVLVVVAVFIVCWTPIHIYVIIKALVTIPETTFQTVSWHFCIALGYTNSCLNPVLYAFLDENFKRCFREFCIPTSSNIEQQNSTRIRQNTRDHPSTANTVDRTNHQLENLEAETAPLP
Sequence of hDOR (human δ-opioid receptor) (P41143 whole entry): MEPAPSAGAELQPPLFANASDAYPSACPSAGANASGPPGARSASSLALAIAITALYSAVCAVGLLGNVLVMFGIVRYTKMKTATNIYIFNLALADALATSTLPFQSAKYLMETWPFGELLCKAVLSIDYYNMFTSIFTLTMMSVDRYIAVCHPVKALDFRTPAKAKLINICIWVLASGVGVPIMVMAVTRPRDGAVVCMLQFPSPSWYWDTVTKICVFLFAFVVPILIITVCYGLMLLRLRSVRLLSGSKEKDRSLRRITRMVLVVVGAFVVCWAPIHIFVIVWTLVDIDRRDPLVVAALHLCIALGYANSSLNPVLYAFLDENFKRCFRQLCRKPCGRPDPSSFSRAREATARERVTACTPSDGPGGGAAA
Sequence of mDOR (mouse δ-opioid receptor) (P32300 whole entry): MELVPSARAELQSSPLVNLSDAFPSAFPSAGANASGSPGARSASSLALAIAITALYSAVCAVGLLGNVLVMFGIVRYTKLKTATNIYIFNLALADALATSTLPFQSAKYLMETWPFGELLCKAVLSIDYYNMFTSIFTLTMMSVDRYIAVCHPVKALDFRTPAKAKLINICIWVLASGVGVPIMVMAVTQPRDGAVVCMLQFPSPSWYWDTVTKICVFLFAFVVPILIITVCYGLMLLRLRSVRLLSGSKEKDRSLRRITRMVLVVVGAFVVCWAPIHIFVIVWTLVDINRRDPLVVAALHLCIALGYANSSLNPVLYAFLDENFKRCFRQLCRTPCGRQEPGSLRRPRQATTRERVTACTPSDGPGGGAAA

Compound `Oc1ccc2c3c1O[C@H]1c4[nH]c5c(c4C[C@@]4(O)[C@@H](C2)N(CC2CC2)CC[C@]314)C[C@@]1(O)[C@H]2Cc3ccc(O)c4c3[C@@]1(CCN2CC1CC1)[C@H]5O4` [nor-binaltorphimine] had an IC50 in assay [1] of 28.1 ± 27.2 nM.
As to `CN1c2ccccc2C(NCCCCCCC(=O)O)c2ccc(Cl)cc2S1(=O)=O` (centres unmarked) [tianeptine], the inhibition constant Ki in assay [2] was 383 ± 183 nM; in assay [3], above 10000 nM; in assay [4] it was “Kis were determined at MOR, as well as at DOR and KOR”. This compound also registered an EC50 in assay [5] of 14500 ± 6600 nM.

For the origin of these results see PMC4119213 (Translational Psychiatry, 2014).
